# Measured values as given in PubChem BioAssay (NCI).
#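 Each compound was tested at five concentrations against cells in 96-well plates for 48 hours. GI50 = concentration required for 50% inhibition of growth. At the TGI there is no net growth.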
# Test system: KM12 colon
# Test: NCI tumour cell line growth inhibition, 48 h
row,SMILES,TGI
1,Clc1ccccc1/C=C/c1cscn1,> 100 µM

# Test system: MALME-3M melanoma
# Test: NCI tumour cell line growth inhibition, 48 h
SMILES,TGI,GI50
O=C(O)Cc1cc(O)c(CC(=O)O)cc1O,> 100 µM,
N#Cc1c(Cl)c2cc([N+](=O)[O-])ccc2n2c1nc1ccccc12,24.1 µM,
C=CC1(C)CCC2=C(CCC3C(C)(C(=O)OC)CCCC23C)C1=O (centres undefined),32.8 µM,
O=S1(=O)N(CCNc2nccc(-c3c(-c4cccc(O)c4)nc4sccn34)n2)CCN1Cc1ccccc1,> 50 µM,0.108 µM
C=C(C)C(=O)OC1CCC2(C)C(CCC3C2CCC2(C)C(c4ccc(=O)oc4)CC4OC432)C1 (centres undefined),26.4 µM,
COc1cc(/C=C2\CCCC3=C2NC(C)=NC3c2cc(OC)c(OC)c(OC)c2)cc(OC)c1OC (centres undefined),4.76 µM,1.6 µM
O=C(N/N=C\c1cccc(O)c1)c1ccncc1,> 100 µM,
Cc1cc(O)c(C(C)(C)C)cc1Sc1cc(C(C)(C)C)c(O)cc1C,5.71 µM,2.32 µM
O=C1NN(C2=NNC3(C(=O)N2)c2ccccc2-c2ccccc23)C(c2ccccc2)=N/C1=C/c1ccc(O)cc1,15 µg/mL,15 µg/mL
CCOC(=O)C(O)(NC(=O)c1ccc(F)cc1)C(F)(F)F (centres undefined),> 100 µM,
Cc1nc2ccccc2n1C(=O)c1c(F)c(F)c(F)c(F)c1F,57.5 µM,
Clc1ccccc1/C=C/c1cscn1,> 100 µM,

# Test system: EKVX NSCLC
# Test: NCI tumour cell line growth inhibition, 48 h
SMILES,TGI,GI50
O=C(O)Cc1cc(O)c(CC(=O)O)cc1O,> 100 µM,
N#Cc1c(Cl)c2cc([N+](=O)[O-])ccc2n2c1nc1ccccc12,34.2 µM,
C=CC1(C)CCC2=C(CCC3C(C)(C(=O)OC)CCCC23C)C1=O (centres undefined),32.8 µM,
O=S1(=O)N(CCNc2nccc(-c3c(-c4cccc(O)c4)nc4sccn34)n2)CCN1Cc1ccccc1,> 50 µM,26.8 µM
C=C(C)C(=O)OC1CCC2(C)C(CCC3C2CCC2(C)C(c4ccc(=O)oc4)CC4OC432)C1 (centres undefined),11 µM,
O=C(N/N=C\c1cccc(O)c1)c1ccncc1,> 100 µM,
Cc1cc(O)c(C(C)(C)C)cc1Sc1cc(C(C)(C)C)c(O)cc1C,11.6 µM,2.93 µM
O=C1CCCCC2N(C(c3ccccc3)c3ccccc3)CC[C@@]12c1ccccc1 (mixture of isomers),> 10 µM,
O=C1NN(C2=NNC3(C(=O)N2)c2ccccc2-c2ccccc23)C(c2ccccc2)=N/C1=C/c1ccc(O)cc1,> 150 µg/mL,47.4 µg/mL
CCOC(=O)C(O)(NC(=O)c1ccc(F)cc1)C(F)(F)F (centres undefined),> 100 µM,
Cc1nc2ccccc2n1C(=O)c1c(F)c(F)c(F)c(F)c1F,> 100 µM,
Clc1ccccc1/C=C/c1cscn1,> 100 µM,

# Test system: OVCAR-4 ovarian
# Test: NCI tumour cell line growth inhibition, 48 h
SMILES,TGI,GI50
O=C(O)Cc1cc(O)c(CC(=O)O)cc1O,> 100 µM,
N#Cc1c(Cl)c2cc([N+](=O)[O-])ccc2n2c1nc1ccccc12,3.58 µM,
C=CC1(C)CCC2=C(CCC3C(C)(C(=O)OC)CCCC23C)C1=O (centres undefined),28.2 µM,
O=S1(=O)N(CCNc2nccc(-c3c(-c4cccc(O)c4)nc4sccn34)n2)CCN1Cc1ccccc1,> 50 µM,13.6 µM
C=C(C)C(=O)OC1CCC2(C)C(CCC3C2CCC2(C)C(c4ccc(=O)oc4)CC4OC432)C1 (centres undefined),34 µM,
COc1cc(/C=C2\CCCC3=C2NC(C)=NC3c2cc(OC)c(OC)c(OC)c2)cc(OC)c1OC (centres undefined),> 100 µM,2.39 µM
O=C(N/N=C\c1cccc(O)c1)c1ccncc1,> 100 µM,
Cc1cc(O)c(C(C)(C)C)cc1Sc1cc(C(C)(C)C)c(O)cc1C,12.5 µM,3.16 µM
O=C1CCCCC2N(C(c3ccccc3)c3ccccc3)CC[C@@]12c1ccccc1 (mixture of isomers),> 10 µM,
O=C1NN(C2=NNC3(C(=O)N2)c2ccccc2-c2ccccc23)C(c2ccccc2)=N/C1=C/c1ccc(O)cc1,> 150 µg/mL,57.5 µg/mL
CCOC(=O)C(O)(NC(=O)c1ccc(F)cc1)C(F)(F)F (centres undefined),> 100 µM,
Cc1nc2ccccc2n1C(=O)c1c(F)c(F)c(F)c(F)c1F,29 µM,
Clc1ccccc1/C=C/c1cscn1,> 100 µM,

# Test system: SN12C renal
# Test: NCI tumour cell line growth inhibition, 48 h
SMILES,TGI,GI50
O=C(O)Cc1cc(O)c(CC(=O)O)cc1O,> 100 µM,
N#Cc1c(Cl)c2cc([N+](=O)[O-])ccc2n2c1nc1ccccc12,> 100 µM,
C=CC1(C)CCC2=C(CCC3C(C)(C(=O)OC)CCCC23C)C1=O (centres undefined),33 µM,
O=S1(=O)N(CCNc2nccc(-c3c(-c4cccc(O)c4)nc4sccn34)n2)CCN1Cc1ccccc1,> 50 µM,9.5 µM
C=C(C)C(=O)OC1CCC2(C)C(CCC3C2CCC2(C)C(c4ccc(=O)oc4)CC4OC432)C1 (centres undefined),24.1 µM,
O=C(N/N=C\c1cccc(O)c1)c1ccncc1,> 100 µM,
Cc1cc(O)c(C(C)(C)C)cc1Sc1cc(C(C)(C)C)c(O)cc1C,> 100 µM,2.91 µM
O=C1CCCCC2N(C(c3ccccc3)c3ccccc3)CC[C@@]12c1ccccc1 (mixture of isomers),> 10 µM,
O=C1NN(C2=NNC3(C(=O)N2)c2ccccc2-c2ccccc23)C(c2ccccc2)=N/C1=C/c1ccc(O)cc1,> 150 µg/mL,74.2 µg/mL
CCOC(=O)C(O)(NC(=O)c1ccc(F)cc1)C(F)(F)F (centres undefined),> 100 µM,
Cc1nc2ccccc2n1C(=O)c1c(F)c(F)c(F)c(F)c1F,30.6 µM,
Clc1ccccc1/C=C/c1cscn1,> 100 µM,

# Test system: UACC-62 melanoma
# Test: NCI tumour cell line growth inhibition, 48 h
SMILES,TGI,GI50
O=C(O)Cc1cc(O)c(CC(=O)O)cc1O,> 100 µM,
N#Cc1c(Cl)c2cc([N+](=O)[O-])ccc2n2c1nc1ccccc12,35.4 µM,
C=CC1(C)CCC2=C(CCC3C(C)(C(=O)OC)CCCC23C)C1=O (centres undefined),33.7 µM,
O=S1(=O)N(CCNc2nccc(-c3c(-c4cccc(O)c4)nc4sccn34)n2)CCN1Cc1ccccc1,5.29 µM,0.136 µM
C=C(C)C(=O)OC1CCC2(C)C(CCC3C2CCC2(C)C(c4ccc(=O)oc4)CC4OC432)C1 (centres undefined),17.2 µM,
O=C(N/N=C\c1cccc(O)c1)c1ccncc1,> 100 µM,
Cc1cc(O)c(C(C)(C)C)cc1Sc1cc(C(C)(C)C)c(O)cc1C,3.11 µM,1.32 µM
O=C1CCCCC2N(C(c3ccccc3)c3ccccc3)CC[C@@]12c1ccccc1 (mixture of isomers),> 10 µM,
O=C1NN(C2=NNC3(C(=O)N2)c2ccccc2-c2ccccc23)C(c2ccccc2)=N/C1=C/c1ccc(O)cc1,92.2 µg/mL,33.5 µg/mL
CCOC(=O)C(O)(NC(=O)c1ccc(F)cc1)C(F)(F)F (centres undefined),> 100 µM,
Cc1nc2ccccc2n1C(=O)c1c(F)c(F)c(F)c(F)c1F,44.1 µM,
Clc1ccccc1/C=C/c1cscn1,> 100 µM,
